Experimental data as given in US8318697B2, “Prophylactic and therapeutic treatment of infectious and other diseases with mono- and disaccharide-based compounds” (Corixa Corporation, priority 2000, dated 2012).
Read-outs that look alike come from different tables or passages of the source.

Key:
human whole blood = format: cell-based; settings: for IL10/TNFα cba: ratio of IL-10 to TNF; for TNFα/IL10 cba: ratio of TNF to IL-10
[1] = system: human peripheral blood mononuclear cells (PBMC); assay: Cytokine elaboration from frozen human PBMC (ELISA); format: cell-based; settings: PBMC donor AD112, 22 hours; FIG. 9
Description: PBMC were stored frozen until used. PBMC donor designation was AD112. PBMC at a density of 6.26×10^5 were plated per well in a 48 well plate in 1.0 ml of medium. Medium consisted of RPMI-1640 plus sodium bicarbonate, 10% fetal bovine serum, 4 mM glutamine, 100 ug/ml gentamicin and 10 mM HEPES. PBMC were cultured for 22 hours at 37° C. in a carbon dioxide incubator. Supernatants were harvested and tested by ELISA (R&D Systems) for IL-6, IL-8, IL-10 and MIP-1 beta concentration. Cytokine concentration in supernatants was compared to supernatants obtained from unstimulated PBMC cultured identically.

[2] = system: Ogawa P. gingivalis LPS stimulated whole blood cells; assay: Inhibition of LPS-induced cytokines in whole blood; format: cell-based, human; settings: 10, 5, 2.5 ug/mL
From the text: Table 4 provides the maximum levels of IL-4, IL-2 and IL-5 obtained, as well as ratios of TNF to IL-10, and ratios of IL-10 to TNF. Inhibition data for IL-8, reported as a percentage, are also provided on the right hand side of Table 4. For example, 90% inhibition would calculate to a 90% reduction of cytokine levels. MIP-1β results were similar. […]

influenza A/HK/68 = assay: Lethal influenza challenge model, intranasal monotherapy; settings: i.n.; for protection against influenza challenge, compared by secondary fatty acid chains: FIG. 11, FIG. 13
Description: A dose of 20 μg MonoPhosphoryl Lipid A (MPL) was given to groups of female BALB/c mice by intranasal (i.n.) administration either 2 days prior to or the day of lethal influenza challenge. All mice were challenged with approximately 2 LD50 infectious influenza A/HK/68 administered i.n. Mortality was monitored for 21 days following influenza challenge.
A dose of 20 μg L-Seryl AGPs (RC-526, RC-554, RC-555, RC-537, RC-527, RC-538, RC-560, RC-512 and vehicle only) was given to groups of female BALB/c mice by intranasal (i.n.) administration 2 days prior to or the day of lethal influenza challenge. All mice were challenged with approximately 2 LD50 infectious influenza A/HK/68 administered i.n. The disease index (ruffled fur, hunched posture and labored breathing) was monitored during days 4-19 following influenza challenge. Weight loss and mortality were monitored for 21 days following influenza challenge.

[3] = system: L. monocytogenes 10403 serotype; assay: Murine Listeria monocytogenes challenge model; format: in vivo, Mice; settings: 1 μg intravenously in 0.2% TEOA, challenge two days later; FIGS. 14-17
Description: This example provides experiments evaluating the induction of non-specific resistance in the murine Listeria monocytogenes challenge model performed using various AGPs and MPL. Mice (5 per group) were treated intravenously with the 1 μg of an AGP or MPL solubilized in 0.2% TEOA. Two days later the mice were challenged intravenously with a ˜10^5 L. monocytogenes 10403 serotype (provided by M. L. Gray, Montana State University, Bozeman, Mont.). Two days after the challenge, the mice were sacrificed and the number of colony forming units (CFUs) in the spleens of individual mice were determined by plating 10-fold serial dilutions of splenic homogenates on tryptic soy agar plates. The degree of protection afforded by a given AGP or MPL was calculated by subtracting the average number of bacteria per spleen (log 10 value) in the group of mice treated with a given compound, from the average number of bacteria per spleen (log 10 value) in a control group that was “sham” treated with vehicle (0.2% TEOA) prior to challenge with L. monocytogenes.

human PBMCs = assay: Lineage specific cell surface activation markers in human PBMCs; format: cell-based; settings: LPS 10 ng/ml, RC-526 or RC-527 10 μg/ml
Description: This experiment describes lineage specific cell surface activation markers in human PBMCs activated with LPS or selected AGPs. PBMCs were harvested from a normal donor and plated at 1×10^7 cells/well in a […] (6 well plate) with 3 ml RPMI. LPS (10 ng/ml), RC-526 (10 μg/ml) or RC-527 (10 μg/ml) were added to each of 4 wells. Cells were harvested from each of 2 wells at 4 hr and 24 hr following activation and immediately stained for the lineage and cell surface activation markers.

CCCCCCCCCCCCCC(=O)O[C@H](CCCCCCCCCCC)CC(=O)NCCO[C@@H]1O[C@H](CO)[C@@H](OP(=O)(O)O)[C@H](OC(=O)C[C@@H](CCCCCCCCCCC)OC(=O)CCCCCCCCCCCCC)[C@H]1NC(=O)C[C@@H](CCCCCCCCCCC)OC(=O)CCCCCCCCCCCCC.CCN(CC)CC [RC-529]
IL10/TNFα cba (human whole blood; donor 1): 6.2 | TNFα/IL10 cba (human whole blood; donor 1): 0.4 | IL-6 elaboration compared to MPL [1]: induced more IL-6, IL-10 and MIP-1 beta than did MPL | IL-10 elaboration compared to MPL [1]: induced more IL-6, IL-10 and MIP-1 beta than did MPL | MIP-1 beta elaboration compared to MPL [1]: induced more IL-6, IL-10 and MIP-1 beta than did MPL

CCCCCCCCCCC[C@H](CC(=O)N[C@H]1[C@H](OC[C@H](NC(=O)C[C@@H](CCCCCCCCCCC)OC(=O)CCCCCCCCC)C(=O)O)O[C@H](CO)[C@@H](OP(=O)(O)O)[C@@H]1OC(=O)C[C@@H](CCCCCCCCCCC)OC(=O)CCCCCCCCC)OC(=O)CCCCC.CCN(CC)CC [RC-565]
% inhib. LPS IL-8 [2]: 16% | protection against influenza challenge, compared by secondary fatty acid chains (influenza A/HK/68): more protective than those having fewer

CCCCCCCCCCC[C@H](CC(=O)N[C@H]1[C@H](OC[C@H](NC(=O)C[C@@H](CCCCCCCCCCC)OC(=O)CCCCC)C(=O)O)O[C@H](CO)[C@@H](OP(=O)(O)O)[C@@H]1OC(=O)C[C@@H](CCCCCCCCCCC)OC(=O)CCCCCCCCC)OC(=O)CCCCCCCCC.CCN(CC)CC [RC-569]
% inhib. LPS IL-8 [2]: −13% | protection against influenza challenge, compared by secondary fatty acid chains (influenza A/HK/68): more protective than those having fewer

CCCCCCCCCCC[C@H](CC(=O)N[C@H]1[C@H](OC[C@@H](NC(=O)C[C@@H](CCCCCCCCCCC)OC(=O)CCCCCCCCC)C(=O)O)O[C@H](CO)[C@@H](OP(=O)(O)O)[C@@H]1OC(=O)C[C@@H](CCCCCCCCCCC)OC(=O)CCCCCCCCC)OC(=O)CCCCCCCCC.CCN(CC)CC [RC-547]
protection against L. monocytogenes challenge (reduction of log 10 bacteria per spleen vs vehicle) [3]: protection that was equal to or greater than that provided by MPL

CCCCCCCCCCC[C@H](CC(=O)N[C@H]1[C@H](OC[C@H](NC(=O)C[C@@H](CCCCCCCCCCC)OC(=O)CCCCCCCCC)C(=O)O)O[C@H](CO)[C@@H](OP(=O)(O)O)[C@@H]1OC(=O)C[C@@H](CCCCCCCCCCC)OC(=O)CCCCCCCCC)OC(=O)CCCCCCCCC.CCN(CC)CC [RC-527]
IL-1β cba2 (human whole blood; donor 1): 7102 | IL10/TNFα cba (human whole blood; donor 1): 0.4 | TNFα/IL10 cba (human whole blood; donor 1): 2.5 | IL10/TNFα cba (human whole blood; donor 2): 0.3 | TNFα/IL10 cba (human whole blood; donor 2): 3.4 | % inhib. LPS IL-8 [2]: 5% | CD3+ CD69+ percent expression in NK-Cells (CD56+) (human PBMCs; 4 hr activation): 11% | CD25+ percent expression in B-cells (CD19+) (human PBMCs; 4 hr activation): 0% | CD25+ percent expression in Mono/Macs (CD14+) (human PBMCs; 4 hr activation): 1% | CD69+ percent expression in B-cells (CD19+) (human PBMCs; 4 hr activation): 56% | CD69+ percent expression in Mono/Macs (CD14+) (human PBMCs; 4 hr activation): 22% | CD69+ percent expression in NK-Cells (CD56+) (human PBMCs; 4 hr activation): 40% | CD69+ percent expression in T-cells (CD3+) (human PBMCs; 4 hr activation): 10% | CD86+ percent expression in B-cells (CD19+) (human PBMCs; 4 hr activation): 8% | CD95+ percent expression in B-cells (CD19+) (human PBMCs; 4 hr activation): 7% | MFI CD11b+ in Mono/Macs (CD14+) (human PBMCs; 4 hr activation): 1870 | MFI CD54+ (ICAM-1) in B-cells (CD19+) (human PBMCs; 4 hr activation): 65 | MFI CD54+(ICAM-1) in Mono/Macs (CD14+) (human PBMCs; 4 hr activation): 743 | TLR2+ percent expression in Mono/Macs (CD14+) (human PBMCs; 4 hr activation): 85% | CD3+ CD69+ percent expression in NK-Cells (CD56+) (human PBMCs; 24 hr activation): 16% | CD14+ CD25+ percent expression in Mono/Macs (CD14+) (human PBMCs; 24 hr activation): 70% | CD14+ CD69+ percent expression in Mono/Macs (CD14+) (human PBMCs; 24 hr activation): 22% | CD14+ TLR2+ percent expression in Mono/Macs (CD14+) (human PBMCs; 24 hr activation): 97% | CD19+ CD25+ percent expression in B-Cells (CD19+) (human PBMCs; 24 hr activation): 34% | CD19+ CD69+ percent expression in B-Cells (CD19+) (human PBMCs; 24 hr activation): 66% | CD19+ CD86+ percent expression in B-Cells (CD19+) (human PBMCs; 24 hr activation): 51% | CD19+ CD95+ percent expression in B-Cells (CD19+) (human PBMCs; 24 hr activation): 73% | CD69+ percent expression in NK-Cells (CD56+) (human PBMCs; 24 hr activation): 50% | CD69+ percent expression in T-cells (CD3+) (human PBMCs; 24 hr activation): 10% | MFI CD11b+ in Mono/Macs (CD14+) (human PBMCs; 24 hr activation): 1611 | MFI CD54+ (ICAM-1) in B-cells (CD19+) (human PBMCs; 24 hr activation): 211 | MFI CD54+(ICAM-1) in Mono/Macs (CD14+) (human PBMCs; 24 hr activation): 4445 | protection against L. monocytogenes challenge (reduction of log 10 bacteria per spleen vs vehicle) [3]: protection that was equal to or greater than that provided by MPL | protection against influenza challenge over dose range (influenza A/HK/68; doses up to 40 μg, FIG. 12): maximum protection over a dose range of 2.5 μg to 40 μg
